According to US20140378408A1, “NUCLEOSIDE 5'-PHOSPHOROTHIOATE ANALOGUES AND USES THEREOF” (BAR-ILAN UNIVERSITY, an Israeli University, priority 2012, published 2014):
Like-named read-outs stand apart in the source and are kept apart here.

Experiments:
[1] = literature; cited from earlier work
TNAP = biological target: T1, TNAP (Homo sapiens, UniProt P05186); assay: Hydrolysis by TNAP; type: in vitro ADME; conditions: 1 h
T1 sequence (P05186 18-501): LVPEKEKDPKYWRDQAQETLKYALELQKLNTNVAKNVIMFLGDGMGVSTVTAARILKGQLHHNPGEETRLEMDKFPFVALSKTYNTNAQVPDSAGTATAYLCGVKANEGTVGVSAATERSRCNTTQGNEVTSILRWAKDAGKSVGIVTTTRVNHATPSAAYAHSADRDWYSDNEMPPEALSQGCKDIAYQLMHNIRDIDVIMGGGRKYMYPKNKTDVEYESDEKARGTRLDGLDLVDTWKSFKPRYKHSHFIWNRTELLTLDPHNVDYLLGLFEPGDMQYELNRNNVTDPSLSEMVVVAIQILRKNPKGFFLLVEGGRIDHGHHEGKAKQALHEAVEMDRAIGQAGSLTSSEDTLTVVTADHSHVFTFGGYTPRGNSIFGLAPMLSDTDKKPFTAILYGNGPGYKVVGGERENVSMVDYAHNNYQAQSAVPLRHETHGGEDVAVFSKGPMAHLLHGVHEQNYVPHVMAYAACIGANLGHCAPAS
Description: The metabolic stability of APPCCl2P-α-S (isomer A) and APCPP-γ-S was further proven by their resistance to enzymatic hydrolysis by TNAP.

cortical neurons = assay: Neuroprotection of cultured cortical neurons exposed to FeSO4 or FeSO4/H2O2; type: cell-based; conditions: for protection: co-application with FeSO4 3 μM
Method: FIGS. 10A-10B show the neuroprotective effect of ATP-γ-S and GDP-β-S (0.2-200 μM, t=24 h) as evaluated by MTT production in cortical neurons exposed for 24 h to either FeSO4 at final concentration of 3 μM (10A); or both FeSO4 (3 μM) and H2O2 (100 μM) (10B). The results shown are the mean±SEM of three independent experiments in quadruplicate.
Cultured cortical neurons in 96-well plates were treated with different concentrations of FeSO4, or hydrogen peroxide and FeSO4, for 24 h at 37° C. Following exposure to various insults, the cells were treated with ATP-γ-S and GDP-β-S as described. Cells were subsequently incubated for a further 18-24 h as indicated before being assessed for viability measures. Neurons were treated with ATP-γ-S and GDP-β-S at three concentrations ([…]) simultaneously with 1.5, 3 or 6 μM FeSO4 for 24 h. Following 24 h incubation in the presence of both FeSO4 and ATP-γ-S and GDP-β-S cell viability measures were assessed by XTT assay. All experiments were performed in triplicate.
FeSO4 induced a concentration-dependent decrease in cell viability as assessed by XTT assay and morphological assessment following 24 h of exposure (FIG. 9). The neuroprotective effect of ATP-γ-S and GDP-β-S (due to iron chelation) was evaluated in cortical neurons exposed to FeSO4 for 24 h (FIG. 10).

primary neurons = assay: Protection of primary neuron culture against Aβ42 insult (trypan blue count); type: cell-based
Method: Primary neuron cells were cultured in 96 wells plate (95×10^4 per well). After 24 h the cells were treated with 50 μM Aβ42 and various concentrations of APCPP-γ-S (0.04-25 μM) for 48 h. Cell viability was measured by dyeing the cells with trypan blue and counts of the vital cells. The results shown are the mean±S.D of three independent experiments in triplicate (*P<0.05, vs. Aβ42 treatment).
Primary neurons cells were cultured in 96 wells plate (95×10^4 per well). […] Cell viability was measured by dyeing the cells with trypan blue and counts the vital cells. The results shown are the mean±S.D of three independent experiments in triplicate (*P<0.05, **P<0.01 vs. Aβ42 treatment).
In this study, the neuroprotective activity of APCPP-γ-S in neuronal cells exposed to toxic Aβ42 was evaluated. At first we measured the number of the viable neuronal cells after treatment with Aβ42 (5-50 μM) (FIG. 11). At 50 μM Aβ42, 50% of the neuronal culture remained vital. Next, we measured the protective effect of APCPP-γ-S: primary neurons were treated with APCPP-γ-S (0.04-25 μM) and 50 μM Aβ42 for 48 h.

PC12 cells [2] = assay: Inhibition of Fe(II)-induced ROS formation in PC12 cells (DCFH-DA); type: cell-based; conditions: PC12 cells, FeSO4 0.16 μM, 1 h, DCFH-DA; read-out: IC50 inhibition of ROS formation
Method: In this study, nucleoside 5′-phosphorothioate analogues were explored as inhibitors of Fe(II)-induced oxidative stress in PC12 cells used as a neuronal model. Reduction of ROS production in PC12 cells by each one of the tested analogues was measured by DCFH-DA, a radical sensitive indicator. After DCFH-DA was removed, the tested analogue was added to the cells at a final concentration of 0.2-200 μM. Oxidation was initiated by the addition of FeSO4 (0.16 μM) to the wells. The plates were incubated for 1 h at 37° C., during which the absorbance was read by a Tecan fluorometer at 485/530 nm.

[3] = OH radical inhibition, Fe^2+/H2O2 system, earlier work; cited from earlier work
Aβ40-Cu^2+ aggregates = biological target: T2, Aβ40-Cu^2+ aggregates (Homo sapiens, UniProt P05067); assay: DLS, size reduction of Aβ40-Cu^2+ aggregates; conditions: aggregate alone 1836 nm; 25 μM Aβ40-Cu^2+, pH 6.6
T2 construct: purchased GL-Biochem (Shanghai)
Method: PBS buffer, Aβ40, chelator, Zn(NO3)2, and Cu(NO3)2 solutions were filtered through a […] PVDF syringe filter. 496 μM Aβ40 solution in 10 mM PBS (pH 7.4) and 2 mM Zn(NO3)2 solution were mixed to obtain 200 μM Aβ40-Zn^2+ (1:1 ratio) of a cloudy solution. Similarly, 2 mM Cu(NO3)2 solution was added to 496 μM Aβ40 in 10 mM PBS (pH 6.6). Aβ40-Zn^2+/Cu^2+ (10 μl) solution was transferred to Eppendorf tubes containing 10 mM PBS buffer (64 or 67 μl) followed by the addition of 3 and 6 eq of 2 mM nucleotide (6 or 3 μl) solution and incubation for 45 min at RT. The resulting mixture was incubated for another 30 min at RT and DLS data were then collected in a 70 μl disposable cuvette. The final sample concentrations were 25 μM Aβ40, 25 μM Zn^2+ or Cu^2+, and 150 or 75 μM nucleotide.
Monomeric Aβ40 was incubated with either Cu^2+ or Zn^2+ for 45 min to form a 1:1 peptide metal-ion complex. […] For the Aβ40-Zn^2+ particles the instrument readings indicated a different size distribution. […] We evaluated the capacity of the phosphorothioate analogues to dissolve Aβ40-Cu^2+ or Zn^2+ aggregates, as compared to EDTA and clioquinol known for their ability to dissolve Aβ-M^2+ aggregates (Ritchie et al., 2003; Huang et al., 1997). The reduction of dH of Aβ40-Cu^2+ aggregates by EDTA, clioquinol, or tested compounds was compared to the dH of Aβ-Cu^2+ aggregate itself (FIG. 5A). In addition, the efficacy of the chelators ATP-γ-S, ADP-β-S, APCPP-γ-S and GDP-β-S to resolubilize Aβ40-Cu^2+ and Aβ40-Zn^2+ is described in FIGS. 5B and 5C relative to EDTA and clioquinol. EDTA efficiency in reducing Aβ particle size is considered as 100%.

Aβ40-Zn^2+ aggregates = biological target: T3, Aβ40-Zn^2+ aggregates (Homo sapiens, UniProt P05067); assay: DLS, re-solubilization of Aβ40-Zn^2+ aggregates; conditions: EDTA = 100%, clioquinol value refers to FIG. 5B, 5C
T3 construct: Monomeric Aβ40 was incubated with either Cu^2+ or Zn^2+; purchased GL-Biochem (Shanghai)

Aβ28-Cu^+ complex = biological target: T4, Aβ28-Cu^+ complex (Homo sapiens, UniProt P05067); assay: Titration of Aβ28-Cu^+ complex by chelators monitored by 1H-NMR; conditions: 6 eq chelator, 0.8 mM Aβ28-Cu^+, pD 7
T4 construct: we first studied Aβ28, as a more soluble fragment of Aβ40; purchased Sigma-Aldrich

[4] = ESR OH radical assay, Cu^+/H2O2 Fenton system; conditions: N/A = minimal radical production exceeds 10%
[5] = ESR OH radical assay, Fe^2+/H2O2 Fenton system; conditions: N/A = minimal radical production exceeds 10%
[6] = literature; cited from earlier work; remark: listed apart in the source
PC12 cells [7] = assay: Stability of nucleotides in PC12 cells
[8] = Table 2, neuroprotection of primary neurons exposed to FeSO4, read-out: IC50
[9] = co-application of FeSO4 3 μM and H2O2 100 μM, read-out: IC50 neuroprotection
[10] = cortical neurons, FeSO4 3 μM, 24 h, read-out: IC50 neuroprotection

T4 sequence (P05067 672-699 limits assumed, one chain of several): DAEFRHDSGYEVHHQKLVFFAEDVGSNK
T2 sequence (P05067 672-711 limits assumed): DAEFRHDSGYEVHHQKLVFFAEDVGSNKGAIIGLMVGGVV
T3 sequence (P05067 672-711 limits assumed): as above

Row | Compound | log K of Cu^2+ complex [1] | IC50 (PC12 cells [2]) [nM] | IC50 (cortical neurons; [8]) [nM] | IC50 (cortical neurons; [9]) [nM] | protection (cortical neurons; 24 h) [%] | IC50 (cortical neurons; [10]) [nM] | dH (particle size) of Aβ40-Cu^2+ after chelator (Aβ40-Cu^2+ aggregates) [nm] | effect on Aβ28-Cu^+ 1H-NMR spectrum (Aβ28-Cu^+ complex) | also measured
1 | Nc1ncnc2c1ncn2[C@@H]1O[C@H](COP(=O)(O)OP(=O)(O)OP(=O)(O)O)[C@@H](O)[C@H]1O [ATP, adenosine triphosphate] | 6.34 |  |  |  |  |  |  |  | Hydrolysis by TNAP (TNAP): 100%; IC50 (cortical neurons; Cortical neurone, Table 2, neuroprotection of primary neurons exposed to FeSO4, read-out: IC50): 30000 ± 2100 nM; neuronal cells maintained (primary neurons; at 25 μM, 50 μM Aβ42, 48 h): 45%
2 | Nc1ncnc2c1ncn2[C@@H]1O[C@H](COP(=O)(O)OP(=O)(O)OP(O)(O)=S)[C@@H](O)[C@H]1O [ATP-γ-S, Adenosine 5′-[γ-thio]-triphosphate] |  | 180 | 10 ± 8 | 1000 | 100 | 10 | 110 |  | times more active than ATP [3]: 100; times more active than Trolox [3]: 20; IC50 (cortical neurons; primary cortical neuronal cells, read-out: IC50 protection from damage caused by FeSO4): 10 nM; IC50 (primary neurons; 50 μM Aβ42, 48 h, read-out: concentration that maintained 50% of neuronal cells): 800 nM; IC50 (primary neurons; primary neurons, read-out: IC50 protection from Aβ42 insult): 800 nM
3 | Oc1c(I)cc(Cl)c2cccnc12 [Clioquinol, 5-chloro-7-iodoquinolin-8-ol] |  |  |  |  |  |  | 127 | slightly sharpened, yet, no signal pattern emerged | efficacy in resolubilizing aggregates relative to EDTA (Aβ40-Zn^2+ aggregates): ca. 75 % of EDTA efficacy
4 | O=C(O)CN(CCN(CC(=O)O)CC(=O)O)CC(=O)O [EDTA, ethylenediamine tetraacetic acid] | 18.8 |  |  |  |  |  |  |  | IC90 [4]: 110 ± 7 µM; IC90 [5]: 98 ± 1 µM; log K of Zn^2+ complex [6]: 16.5
5 | Nc1nc2c(ncn2[C@@H]2O[C@H](COP(=O)(O)OP(O)(O)=S)[C@@H](O)[C@H]2O)c(=O)[nH]1 [GDP-β-S, guanosine 5′-[β-thio]diphosphate] |  | 10000 | 80 ± 3 | 4000 | 130 | 8 |  | partial recovery of Aβ28 aromatic signals | fold more stable in PC12 cells than parent nucleotide (GDP, ADP) (PC12 cells [7]): 4.5 fold
